By pIC50 is commonly meant the IC50 on a negative log10 scale, so that one unit is a factor of ten. Usually pKi stands for −log10 of the Ki, conventionally taken in molar units. Higher therefore signals a low Ki.

The values below come from ChEMBL document CHEMBL5113488, “Design, synthesis and antitumor activity study of a gemcitabine prodrug conjugated with a HDAC6 inhibitor” (Bioorg Med Chem Lett, 2022).

Data set [1] addresses T1, Cytochrome P450 3A2 (Rattus norvegicus, UniProt P05183).
T1 sequence (P05183 whole entry): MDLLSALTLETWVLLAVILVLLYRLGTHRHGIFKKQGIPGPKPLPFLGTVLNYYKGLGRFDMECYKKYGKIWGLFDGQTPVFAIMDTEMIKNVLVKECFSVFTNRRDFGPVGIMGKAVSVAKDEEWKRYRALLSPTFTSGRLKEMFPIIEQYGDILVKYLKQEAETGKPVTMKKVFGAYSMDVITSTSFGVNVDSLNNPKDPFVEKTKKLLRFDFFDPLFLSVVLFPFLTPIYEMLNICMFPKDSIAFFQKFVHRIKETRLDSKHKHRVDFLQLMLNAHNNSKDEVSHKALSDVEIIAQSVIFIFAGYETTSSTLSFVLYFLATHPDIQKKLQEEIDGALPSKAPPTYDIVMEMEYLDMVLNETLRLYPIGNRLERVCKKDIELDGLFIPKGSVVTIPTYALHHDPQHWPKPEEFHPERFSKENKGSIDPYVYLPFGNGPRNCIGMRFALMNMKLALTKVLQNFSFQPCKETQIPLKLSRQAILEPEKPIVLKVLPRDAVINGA
The data set is described as follows: Inhibition of CYP3A2-mediated metabolite formation in rat liver microsomes assessed as reduction in N-(1-((2R,4R,5R)-3,3-difluoro-4-hydroxy-5-(hydroxymethyl)tetrahydrofuran-2-yl)-2-oxo-1,2-dihydropyrimidin-4-yl)pentadecanamide metabolism. Format: ADME, Microsome. A general note: Liver microsomes are vesicles of endoplasmic reticulum, rich in cytochrome P450 enzymes.

Data set [2] concerns 4T1. The data set is described as follows: Antitumor activity against mouse 4T1 cells implanted in mouse assessed as tumor growth inhibition at 5 mg/kg administered for 15 days relative to control. To be noted: 4T1, 360 h, time 15 day, read-out: TGI. Type of data set: functional.
For data set [3], the system named is MDA-MB-231. The data set is described as follows: Antiproliferative activity against human MDA-MB-231 cells assessed as inhibition of cell growth pretreated with hENT1 inhibitor, dipyridamole at 10 uM followed by compound addition. Format: functional, cell-based.
For data set [4], the target named is T1, Cytochrome P450 3A2. Description: Inhibition of CYP3A2 in rat liver microsomes using midazolam as substrate. Type of data set: ADME, Microsome.
The next data set concerns the target T2, Cytochrome P450 2C6 (Rattus norvegicus, UniProt P05178).
T2 sequence (P05178 whole entry): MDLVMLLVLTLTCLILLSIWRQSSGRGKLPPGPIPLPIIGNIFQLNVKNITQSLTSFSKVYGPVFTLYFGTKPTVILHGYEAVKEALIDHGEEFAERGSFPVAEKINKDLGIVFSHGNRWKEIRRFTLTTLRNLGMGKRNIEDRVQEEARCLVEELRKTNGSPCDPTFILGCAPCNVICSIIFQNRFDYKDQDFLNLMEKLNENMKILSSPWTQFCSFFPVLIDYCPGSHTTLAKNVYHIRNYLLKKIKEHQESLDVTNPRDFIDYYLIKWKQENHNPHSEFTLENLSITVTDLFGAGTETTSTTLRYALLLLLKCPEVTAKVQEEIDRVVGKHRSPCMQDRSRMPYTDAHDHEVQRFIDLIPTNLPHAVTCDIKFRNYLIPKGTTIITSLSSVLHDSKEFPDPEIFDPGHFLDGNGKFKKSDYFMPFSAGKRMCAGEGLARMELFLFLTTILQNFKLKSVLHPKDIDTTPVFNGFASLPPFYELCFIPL
Description: Inhibition of CYP2C6 in rat liver microsomes using diclofenac as substrate. Type of data set: ADME, Microsome.

A further data set concerns the target T3, Cytochrome P450 2D1 (Rattus norvegicus, UniProt P10633).
T3 sequence (P10633 whole entry): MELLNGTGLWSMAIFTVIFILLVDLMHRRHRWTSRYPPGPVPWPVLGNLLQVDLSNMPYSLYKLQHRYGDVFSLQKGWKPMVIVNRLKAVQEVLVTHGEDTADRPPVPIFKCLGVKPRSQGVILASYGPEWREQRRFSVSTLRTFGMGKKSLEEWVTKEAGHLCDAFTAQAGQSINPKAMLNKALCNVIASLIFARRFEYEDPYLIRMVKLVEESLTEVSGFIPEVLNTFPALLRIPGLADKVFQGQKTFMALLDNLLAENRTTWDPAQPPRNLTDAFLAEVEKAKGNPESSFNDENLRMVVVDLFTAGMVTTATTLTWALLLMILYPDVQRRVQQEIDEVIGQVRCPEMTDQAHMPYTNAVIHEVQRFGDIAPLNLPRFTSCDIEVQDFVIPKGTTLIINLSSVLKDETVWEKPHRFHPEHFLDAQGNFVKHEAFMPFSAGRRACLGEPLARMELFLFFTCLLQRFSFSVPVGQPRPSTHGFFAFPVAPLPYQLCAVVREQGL
The data set is described as follows: Inhibition of CYP2D1 in rat liver microsomes using dextromethorphan as substrate. Format: ADME, Microsome.

In a further data set the test system is SGC-7901. Description: Antiproliferative activity against human SGC-7901 cells assessed as inhibition of cell growth. Format: functional, cell-based.
The next data set relates to SK-OV-3. Description: Antiproliferative activity against human SK-OV-3 cells assessed as inhibition of cell growth. Format: functional, cell-based.
Another data set has as its system HeLa. Description: Antiproliferative activity against human HeLa cells assessed as inhibition of cell growth. Format: functional, cell-based.
A short description of data set [5]: Toxicity in mouse implanted with mouse 4T1 cells assessed as pathological damage in heart at 5 to 10 mg/kg administered for 15 days by H and E staining based analysis. Type of data set: organism-based. To be noted: 4t1, 360 h, dose 5-10 mg/kg, time 15 day.
The next data set concerns the target T4, Cytochrome P450 1A2 (Rattus norvegicus, UniProt P04799).
T4 sequence (P04799 whole entry): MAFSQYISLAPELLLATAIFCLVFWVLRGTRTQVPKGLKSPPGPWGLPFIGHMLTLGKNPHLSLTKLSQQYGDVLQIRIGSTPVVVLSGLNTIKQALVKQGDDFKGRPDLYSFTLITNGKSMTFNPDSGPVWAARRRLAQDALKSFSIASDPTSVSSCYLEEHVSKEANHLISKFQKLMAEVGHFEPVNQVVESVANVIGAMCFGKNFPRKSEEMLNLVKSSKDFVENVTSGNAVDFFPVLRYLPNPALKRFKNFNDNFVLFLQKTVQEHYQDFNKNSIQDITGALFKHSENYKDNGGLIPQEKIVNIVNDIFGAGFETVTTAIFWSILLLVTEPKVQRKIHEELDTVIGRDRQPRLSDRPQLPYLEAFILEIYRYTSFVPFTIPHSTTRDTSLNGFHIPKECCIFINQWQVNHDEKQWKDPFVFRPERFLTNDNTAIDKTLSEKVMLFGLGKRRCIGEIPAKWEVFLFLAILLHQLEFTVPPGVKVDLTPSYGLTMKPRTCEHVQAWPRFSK
The data set is described as follows: Inhibition of CYP1A2 in rat liver microsomes using phenacetin as substrate. Type of data set: ADME, Microsome.

The nature of data set [6]: Toxicity in mouse implanted with mouse 4T1 cells assessed as pathological damage in liver at 5 to 10 mg/kg administered for 15 days by H and E staining based analysis. Format: organism-based. The following applies: 4t1, 360 h, dose 5-10 mg/kg, time 15 day.
Data set [7] deals with 4T1. The data set is described as follows: Antitumor activity against mouse 4T1 cells implanted in mouse assessed as tumor growth inhibition at 10 mg/kg administered for 15 days relative to control. To be noted: 4T1, 360 h, time 15 day, read-out: TGI. Format: functional.
In a further data set the test system is Huh-7. Description: Antiproliferative activity against human Huh-7 cells assessed as inhibition of cell growth. Type of data set: functional, cell-based.
The nature of data set [8]: Toxicity in mouse implanted with mouse 4T1 cells assessed as body weight loss at 5 to 10 mg/kg administered for 15 days. Format: organism-based. The following applies: 4t1, 360 h, dose 5-10 mg/kg, time 15 day.
The next data set concerns HCT-116. Description: Antiproliferative activity against human HCT-116 cells assessed as inhibition of cell growth. Type of data set: functional, cell-based.
In data set [9] the test system is MDA-MB-231. The data set is described as follows: Antiproliferative activity against human MDA-MB-231 cells assessed as inhibition of cell growth. Type of data set: functional, cell-based.
The next data set deals with PANC-1. The data set is described as follows: Antiproliferative activity against human PANC-1 cells assessed as inhibition of cell growth. Format: functional, cell-based.
For data set [10], the system named is 4T1. The data set is described as follows: Antiproliferative activity against mouse 4T1 cells assessed as inhibition of cell growth. Type of data set: functional, cell-based.
The next data set addresses Cytochrome P450 2E1 (Rattus norvegicus, UniProt P05182). Description: Inhibition of CYP2E1 in rat liver microsomes using chlorzoxazone as substrate. Format: ADME, Microsome.
Data set [11] has as its system MDA-MB-231. The data set is described as follows: Antiproliferative activity against human MDA-MB-231 cells assessed as inhibition of cell growth incubated in presence of 10 uM imatinib. Format: functional, cell-based.
Another data set concerns A549. The data set is described as follows: Antiproliferative activity against human A549 cells assessed as inhibition of cell growth. Type of data set: functional, cell-based.
Data set [12] deals with MDA-MB-231. The data set is described as follows: Induction of DNA damage in human MDA-MB-231 cells assessed as increase in phospho-gamma-H2A.X expression level at 0.3 to 3 uM. The following applies: dose 0.3-3 µM. Format: functional, cell-based.
Data set [13] in a line: Toxicity in mouse implanted with mouse 4T1 cells assessed as pathological damage in kidney at 5 to 10 mg/kg administered for 15 days by H and E staining based analysis. Type of data set: organism-based. To be noted: 4t1, 360 h, dose 5-10 mg/kg, time 15 day.

pIC50, pKi: −log10 of the molar value. Calls of active or inactive are those of the source. The calls are words filed in the database; no cut-off is given here.

Cytochrome P450 2E1, sequence (P05182 whole entry): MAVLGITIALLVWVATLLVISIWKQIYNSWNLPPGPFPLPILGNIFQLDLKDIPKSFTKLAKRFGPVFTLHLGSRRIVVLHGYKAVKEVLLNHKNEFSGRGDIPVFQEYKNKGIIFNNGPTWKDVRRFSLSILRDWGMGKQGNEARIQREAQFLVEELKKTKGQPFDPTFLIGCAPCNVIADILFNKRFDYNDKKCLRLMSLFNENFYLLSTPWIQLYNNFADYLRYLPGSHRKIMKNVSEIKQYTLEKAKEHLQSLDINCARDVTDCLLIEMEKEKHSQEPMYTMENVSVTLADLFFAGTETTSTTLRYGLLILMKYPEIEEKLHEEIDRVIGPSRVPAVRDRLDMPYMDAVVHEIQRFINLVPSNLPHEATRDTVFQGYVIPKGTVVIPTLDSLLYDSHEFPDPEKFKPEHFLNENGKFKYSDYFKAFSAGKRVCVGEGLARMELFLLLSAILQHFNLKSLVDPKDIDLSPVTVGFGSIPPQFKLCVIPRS

Regarding `CC(=O)N1CCN(c2ccc(OCC3COC(Cn4ccnc4)(c4ccc(Cl)cc4Cl)O3)cc2)CC1` (stereo unspecified) [KETOCONAZOLE], on Cytochrome P450 3A2 [1], the “inhibition (INH)” value was “Active”.

As for `CCCCCCCCCCCCCCC(=O)Nc1ccn([C@@H]2O[C@H](CO)[C@@H](O)C2(F)F)c(=O)n1`, in the data set on 4T1 [2], the inhibition in vivo at 5 mg/kg stood at 73.2%. The pIC50 is 6.77 in the data set on MDA-MB-231 [3]; 5.43 in the data set on SGC-7901; 6.21 in the data set with SK-OV-3; 6.37 in the data set with HeLa; 6.92 in the data set on Huh-7; 6.52 in the data set with HCT-116. Further, the pIC50 in the data set with MDA-MB-231 [9] is 6.85; in the data set with PANC-1 it was 5.97; with 4T1 [10] it was 6.18; with MDA-MB-231 [11], 7.14; in the data set with A549 it was 6.85. The pKi is 4.28 at Cytochrome P450 3A2 [4]; 3.69 at Cytochrome P450 2C6; 3.75 at Cytochrome P450 2D1; 3.90 on Cytochrome P450 1A2; 3.71 on Cytochrome P450 2E1. Besides, the Activity result in [5], in data set [6], in data set [8] and in [13] was “Non-Toxic” in each case. In the data set with 4T1 [7], the inhibition in vivo at 10 mg/kg worked out at 83.8%. In the data set with MDA-MB-231 [12], the result was Active.

As to `Nc1ccn([C@@H]2O[C@H](CO)[C@@H](O)C2(F)F)c(=O)n1` [GEMCITABINE], the negative-log IC50 (pIC50) was 5.14 with MDA-MB-231 [3]; 5.03 in the data set with SGC-7901; 6.36 in the data set on SK-OV-3; 5.70 in the data set with HeLa; 6.13 with Huh-7; 5.52 with HCT-116. For the same compound, the pIC50 with MDA-MB-231 [9] is 5.70; with PANC-1, 5.87; with 4T1 [10], 5.14; with MDA-MB-231 [11] it was 6.09; in the data set with A549, 6.42. Also, in the data set with 4T1 [7], the inhibition in vivo at 10 mg/kg came out at 58.7%.
